Laboratory results reported in US7989464B2, “mGluR1 antagonists as therapeutic agents” (Schering Corporation, priority 2004, dated 2011).

molecular target: T1, hmGluR1 receptor (Homo sapiens, UniProt Q13255); test: IC50 determination: intracellular calcium mobilization (FLIPR) upon Quisqualate stimulation in CHO cells stably expressing hmGluR1; type: cell-based; conditions: against Quisqualate 1 μM (EC80), FLIPR calcium mobilization, read-out: mGluR1 IC50
T1 construct: expressed in transfected cells
Method: A CHO cell line stably expressing hmGluR1 receptor was established. One day prior to assay, cells were split in growth media at concentration of 50,000 cells/well in a volume of 100 μl and seeded into black clear-bottom 96-well plates. After two to six hours, when cells were well attached to the plate, growth medium was replaced with assay medium (100 μL) consisting of DMEM high glucose, supplemented with GPT (1 U/mL) and Sodium pyruvate, 1 mM. Following overnight incubation, medium was discarded and cells were loaded for 2 h with dye from the Calcium 3 Assay Reagent Kit (Molecular Devices, # R8033), prepared according to manufacturers' instructions. […] Test compounds were added 10 minutes before Quisqualate.

T1 sequence (Q13255 19-1194): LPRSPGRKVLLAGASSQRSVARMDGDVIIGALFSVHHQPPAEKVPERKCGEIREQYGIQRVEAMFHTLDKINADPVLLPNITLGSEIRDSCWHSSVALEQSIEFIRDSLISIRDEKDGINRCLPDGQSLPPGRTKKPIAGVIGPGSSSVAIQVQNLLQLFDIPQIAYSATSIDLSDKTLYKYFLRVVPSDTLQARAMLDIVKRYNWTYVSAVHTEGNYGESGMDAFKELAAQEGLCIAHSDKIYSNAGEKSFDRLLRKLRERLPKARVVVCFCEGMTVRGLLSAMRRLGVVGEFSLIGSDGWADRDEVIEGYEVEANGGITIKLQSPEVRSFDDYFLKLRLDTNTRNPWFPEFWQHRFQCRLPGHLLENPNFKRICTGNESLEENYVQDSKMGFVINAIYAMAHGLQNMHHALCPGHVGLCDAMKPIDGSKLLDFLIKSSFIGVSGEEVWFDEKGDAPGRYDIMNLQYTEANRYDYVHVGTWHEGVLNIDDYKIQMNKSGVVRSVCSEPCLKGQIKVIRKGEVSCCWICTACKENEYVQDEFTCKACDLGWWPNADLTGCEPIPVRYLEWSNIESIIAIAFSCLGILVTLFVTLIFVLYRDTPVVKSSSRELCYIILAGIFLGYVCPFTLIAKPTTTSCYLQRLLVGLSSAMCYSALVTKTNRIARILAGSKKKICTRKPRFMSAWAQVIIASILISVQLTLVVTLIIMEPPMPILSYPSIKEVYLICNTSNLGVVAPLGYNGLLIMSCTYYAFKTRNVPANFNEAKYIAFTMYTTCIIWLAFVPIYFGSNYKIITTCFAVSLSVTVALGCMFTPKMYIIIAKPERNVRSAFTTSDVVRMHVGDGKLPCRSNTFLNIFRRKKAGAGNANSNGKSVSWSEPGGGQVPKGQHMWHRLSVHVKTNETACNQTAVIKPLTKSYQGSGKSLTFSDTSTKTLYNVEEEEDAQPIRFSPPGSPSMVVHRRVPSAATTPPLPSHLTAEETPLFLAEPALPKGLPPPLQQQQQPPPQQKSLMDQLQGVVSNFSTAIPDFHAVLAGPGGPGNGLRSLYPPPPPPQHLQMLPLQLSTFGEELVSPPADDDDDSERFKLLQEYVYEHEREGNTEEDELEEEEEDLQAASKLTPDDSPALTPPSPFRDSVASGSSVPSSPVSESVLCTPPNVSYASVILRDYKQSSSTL

| Compound | IC50 |
| --- | --- |
| CN(C)c1ccnc2sc3c(=O)n(-c4ccc5c(c4)OCCO5)cnc3c12 [7AC] | 1.84 nM |
| CN(C)c1ccnc2sc3c(=O)n(-c4ccc5sccc5c4)cnc3c12 [7BM] | 1.48 nM |
| Cc1ccc(-n2cnc3c(sc4nccc(N(C)C)c43)c2=O)cc1F [7DH] | 2.02 nM |

same assay, conditions: against Quisqualate 1 μM (EC80), class symbols, read-out: mGIuR 1 IC50

| Compound | IC50 |
| --- | --- |
| COc1cccc(-n2cnc3c(sc4nccc(N(C)C)c43)c2=O)c1 [7AA] | < 50 nM |
| C=CCn1cnc2c(sc3nccc(N(C)C)c32)c1=O [7AB] | 150 to 1000 nM |
| CN(C)c1ccnc2sc3c(=O)n(-c4ccc5c(c4)OCCO5)cnc3c12 [7AC] | < 50 nM |
| COc1ccc(-n2cnc3c(sc4nccc(N(C)C)c43)c2=O)cc1OC [7AD] | > 1000 nM |
| CCOc1ccc(-n2cnc3c(sc4nccc(N(C)C)c43)c2=O)cc1 [7AE] | 150 to 1000 nM |
| COc1cc(-n2cnc3c(sc4nccc(N(C)C)c43)c2=O)cc(OC)c1OC [7AF] | > 1000 nM |
| CCCOc1ccc(-n2cnc3c(sc4nccc(N(C)C)c43)c2=O)cc1 [7AG] | > 1000 nM |
| CC(c1ccccc1)n1cnc2c(sc3nccc(N(C)C)c32)c1=O (stereo not shown) [7AH] | 50 to 150 nM |
| CN(C)c1ccnc2sc3c(=O)n(C4CCCc5ccccc54)cnc3c12 (stereo not shown) [7AI] | 150 to 1000 nM |
| CN(C)c1ccc(-n2cnc3c(sc4nccc(N(C)C)c43)c2=O)cc1 [7AJ] | < 50 nM |
| CN(C)c1ccnc2sc3c(=O)n(-c4ccc(O)cc4)cnc3c12 [7AK] | < 50 nM |
| CC(=O)Nc1ccc(-n2cnc3c(sc4nccc(N(C)C)c43)c2=O)cc1 [7AL] | > 1000 nM |
| CN(C)c1ccnc2sc3c(=O)n(-c4ccc5[nH]ccc5c4)cnc3c12 [7AM] | < 50 nM |
| CN(C)c1ccnc2sc3c(=O)n(-c4ccc5[nH]ncc5c4)cnc3c12 [7AN] | 150 to 1000 nM |
| CN(C)c1ccnc2sc3c(=O)n(-c4ccc5[nH]nnc5c4)cnc3c12 [7AO] | 150 to 1000 nM |
| COc1ccc(-n2cnc3c(sc4nccc(N(C)C)c43)c2=O)cc1F [7AP] | < 50 nM |
| CC(C)Oc1ccc(-n2cnc3c(sc4nccc(N(C)C)c43)c2=O)cc1 [7AQ] | > 1000 nM |
| CN(C)c1ccnc2sc3c(=O)n(-c4ccc5c(c4)oc(=O)n5C)cnc3c12 [7AR] | > 1000 nM |
| CN(C)c1ccnc2sc3c(=O)n(-c4ccc5ncsc5c4)cnc3c12 [7AS] | < 50 nM |
| Cc1nc2cc(-n3cnc4c(sc5nccc(N(C)C)c54)c3=O)ccc2s1 [7AT] | > 1000 nM |
| COC(=O)c1sccc1-n1cnc2c(sc3nccc(N(C)C)c32)c1=O [7AU] | > 1000 nM |
| CN(C)c1ccnc2sc3c(=O)n(-c4cccc(O)c4)cnc3c12 [7AV] | < 50 nM |
| CN(C)c1ccnc2sc3c(=O)n(-c4ccc5nc[nH]c5c4)cnc3c12 [7AW] | 50 to 150 nM |
| COc1cc(OC)cc(-n2cnc3c(sc4nccc(N(C)C)c43)c2=O)c1 [7AX] | < 50 nM |

| Compound | IC50 |
| --- | --- |
| CN(C)c1ccnc2sc3c(=O)n(-c4ccc(CO)cc4)cnc3c12 [7AY] | < 50 nM |
| CN(C)c1ccnc2sc3c(=O)n(-c4ccc(C(N)=O)cc4)cnc3c12 [7AZ] | > 1000 nM |
| CN(C)c1ccnc2sc3c(=O)n(-c4ccc5c(c4)OCO5)cnc3c12 [7A] | < 50 nM |
| CC(C)c1ccc(-n2cnc3c(sc4nccc(N(C)C)c43)c2=O)cc1 [7BA] | 150 to 1000 nM |
| CN(C)c1ccnc2sc3c(=O)n(-c4ccc(C(C)(C)C)cc4)cnc3c12 [7BB] | > 1000 nM |
| CN(C)c1ccnc2sc3c(=O)n(-c4ccc(CC#N)cc4)cnc3c12 [7BC] | > 1000 nM |
| CN(C)c1ccnc2sc3c(=O)n(-c4ccc5[nH]c(C(F)(F)F)nc5c4)cnc3c12 [7BD] | > 1000 nM |
| CN(C)c1ccnc2sc3c(=O)n(-c4ccc5c(c4)CC(=O)N5)cnc3c12 [7BE] | > 1000 nM |
| Cc1ccc(-n2cnc3c(sc4nccc(N(C)C)c43)c2=O)cc1 [7BF] | < 50 nM |
| COc1ccc(-n2cnc3c(sc4nccc(N(C)C)c43)c2=O)cc1 [7BG] | < 50 nM |
| C#CCn1cnc2c(sc3nccc(N(C)C)c32)c1=O [7BH] | > 1000 nM |
| CN(C)c1ccnc2sc3c(=O)n(-c4ccc5c(c4)CCC5)cnc3c12 [7BI] | < 50 nM |
| CCc1ccc(-n2cnc3c(sc4nccc(N(C)C)c43)c2=O)cc1 [7BJ] | < 50 nM |
| CCCc1ccc(-n2cnc3c(sc4nccc(N(C)C)c43)c2=O)cc1 [7BK] | 150 to 1000 nM |
| CN(C)c1ccnc2sc3c(=O)n(-c4ccc5c(c4)CC=C5)cnc3c12 [7BL] | < 50 nM |
| CN(C)c1ccnc2sc3c(=O)n(-c4ccc5sccc5c4)cnc3c12 [7BM] | < 50 nM |
| CN(C)c1ccnc2sc3c(=O)n(-c4ccc5nsnc5c4)cnc3c12 [7BN] | < 50 nM |
| CN(C)c1ccnc2sc3c(=O)n(-c4ccc5c(c4)NC(=O)CO5)cnc3c12 [7BO] | < 50 nM |
| COc1ccc2nc(-n3cnc4c(sc5nccc(N(C)C)c54)c3=O)sc2c1 [7BP] | > 1000 nM |
| CN(C)c1ccnc2sc3c(=O)n(-c4nc5ccccc5s4)cnc3c12 [7BQ] | 150 to 1000 nM |
| CN(C)c1ccnc2sc3c(=O)n(-c4cccc5nonc45)cnc3c12 [7BR] | 150 to 1000 nM |
| CN(C)c1ccnc2sc3c(=O)n(-c4ccc5ncoc5c4)cnc3c12 [7BS] | < 50 nM |
| Cc1nc2ccc(-n3cnc4c(sc5nccc(N(C)C)c54)c3=O)cc2o1 [7BT] | > 1000 nM |
| Cc1nc2cc(-n3cnc4c(sc5nccc(N(C)C)c54)c3=O)ccc2o1 [7BU] | > 1000 nM |

| Compound | IC50 |
| --- | --- |
| Cc1nc2ccc(-n3cnc4c(sc5nccc(N(C)C)c54)c3=O)cc2[nH]1 [7BV] | > 1000 nM |
| COc1ccc(-n2cnc3c(sc4nccc(N(C)C)c43)c2=O)cn1 [7BW] | < 50 nM |
| COc1cc(Br)c(-n2cnc3c(sc4nccc(N(C)C)c43)c2=O)c(Br)c1 [7BX] | > 1000 nM |
| CN(C)c1ccnc2sc3c(=O)n(-c4ccc5occc5c4)cnc3c12 [7BY] | < 50 nM |
| CNc1ccnc2sc3c(=O)n(-c4ccc5ncsc5c4)cnc3c12 [7BZ] | < 50 nM |
| CNc1ccnc2sc3c(=O)n(-c4ccc(OC)c(F)c4)cnc3c12 [7CA] | < 50 nM |
| CNc1ccnc2sc3c(=O)n(-c4ccc5c(c4)OCO5)cnc3c12 [7CB] | < 50 nM |
| CCc1ccc(-n2cnc3c(sc4nccc(NC)c43)c2=O)cc1 [7CC] | < 50 nM |
| CNc1ccnc2sc3c(=O)n(-c4ccc(O)cc4)cnc3c12 [7CD] | < 50 nM |
| CCN(C)c1ccnc2sc3c(=O)n(-c4ccc(OC)cc4)cnc3c12 [7CE] | < 50 nM |
| CNc1ccc(-n2cnc3c(sc4nccc(N(C)C)c43)c2=O)cc1 [7CF] | < 50 nM |
| CN(C)c1ccnc2sc3c(=O)n(-c4ccc5c(c4)CCO5)cnc3c12 [7CG] | < 50 nM |
| CN(C)c1ccnc2sc3c(=O)n(-c4ccc5c(c4)OCCCO5)cnc3c12 [7CH] | 150 to 1000 nM |
| CC(=O)Nc1cccc(-n2cnc3c(sc4nccc(N(C)C)c43)c2=O)c1 [7CI] | 150 to 1000 nM |
| COc1ccc(-n2cnc3c(sc4nc(C)cc(N(C)C)c43)c2=O)cc1 [7CJ] | 50 to 150 nM |
| Cc1ccc(-n2cnc3c(sc4nc(C)cc(N(C)C)c43)c2=O)cc1 [7CK] | < 50 nM |
| COc1ccc(-n2cnc3c(sc4nc(C)cc(N(C)C)c43)c2=O)cc1F [7CL] | 50 to 150 nM |
| Cc1cc(N(C)C)c2c(n1)sc1c(=O)n(-c3ccc(Cl)cc3)cnc12 [7CM] | < 50 nM |
| Cc1cc(N(C)C)c2c(n1)sc1c(=O)n(-c3ccc4c(c3)CCO4)cnc12 [7CN] | 50 to 150 nM |
| Cc1cc(N(C)C)c2c(n1)sc1c(=O)n(-c3ccc4ncsc4c3)cnc12 [7CO] | 50 to 150 nM |
| CCc1ccc(-n2cnc3c(sc4nc(C)cc(N(C)C)c43)c2=O)cc1 [7CP] | 50 to 150 nM |
| CSc1ccc(-n2cnc3c(sc4nccc(N(C)C)c43)c2=O)cc1 [7CQ] | < 50 nM |
| CN(C)c1ccnc2sc3c(=O)n(-c4ccc5scnc5c4)cnc3c12 [7CR] | < 50 nM |
| CN(C)c1ccnc2sc3c(=O)n(-c4ccc5[nH]c(=O)[nH]c5c4)cnc3c12 [7CS] | 150 to 1000 nM |

| Compound | IC50 |
| --- | --- |
| CN(C)c1ccnc2sc3c(=O)n(-c4ccc(O)c(F)c4)cnc3c12 [7CT] | < 50 nM |
| Cc1cccc(-n2cnc3c(sc4nccc(N(C)C)c43)c2=O)c1 [7CU] | < 50 nM |
| Cc1ccc(-n2cnc3c(sc4nccc(N(C)C)c43)c2=O)cc1C [7CV] | < 50 nM |
| Cc1ccccc1-n1cnc2c(sc3nccc(N(C)C)c32)c1=O [7CW] | 50 to 150 nM |
| Cc1cccc(-n2cnc3c(sc4nccc(N(C)C)c43)c2=O)n1 [7CX] | 50 to 150 nM |
| Cc1cc(N(C)C)c2c(n1)sc1c(=O)n(-c3ccc(Br)cc3)cnc12 [7CY] | < 50 nM |
| Cc1cc(N(C)C)c2c(n1)sc1c(=O)n(C3CCCCC3)cnc12 [7CZ] | < 50 nM |
| CN(C)c1ccnc2sc3c(=O)n(Cc4ccccc4)cnc3c12 [7C] | 50 to 150 nM |
| CSc1ccc(-n2cnc3c(sc4nc(C)cc(N(C)C)c43)c2=O)cc1 [7DA] | 150 to 1000 nM |
| Cc1cc(N(C)C)c2c(n1)sc1c(=O)n(-c3ccccc3)cnc12 [7DB] | < 50 nM |
| Cc1cc(N(C)C)c2c(n1)sc1c(=O)n(-c3ccc(F)cc3)cnc12 [7DC] | < 50 nM |
| Cc1cc(N(C)C)c2c(n1)sc1c(=O)n(-c3cccnc3)cnc12 [7DD] | 150 to 1000 nM |
| Cc1ccc(-n2cnc3c(sc4nccc(N(C)C)c43)c2=O)nc1 [7DE] | < 50 nM |
| Cc1ccc(-n2cnc3c(sc4nccc(N(C)C)c43)c2=O)cn1 [7DF] | < 50 nM |
| Cc1ccc(-n2cnc3c(sc4nccc(N(C)C)c43)c2=O)cc1Cl [7DG] | < 50 nM |
| Cc1ccc(-n2cnc3c(sc4nccc(N(C)C)c43)c2=O)cc1F [7DH] | < 50 nM |
| COc1ccc(-n2cnc3c(sc4nccc(N(C)C)c43)c2=O)c(C)c1 [7DI] | < 50 nM |
| COc1ccc(-n2cnc3c(sc4nccc(N(C)C)c43)c2=O)cc1C [7DJ] | < 50 nM |
| COc1ccc(-n2cnc3c(sc4nccc(N(C)C)c43)c2=O)c(F)c1 [7DK] | < 50 nM |
| CN(C)c1ccnc2sc3c(=O)n(-c4cccc(Br)c4)cnc3c12 [7DL] | < 50 nM |
| Cc1cc(N(C)C)c2c(n1)sc1c(=O)n(-c3ccc(C(F)(F)F)cc3)cnc12 [7DM] | 150 to 1000 nM |
| Cc1cc(N(C)C)c2c(n1)sc1c(=O)n(-c3cccc(Br)c3)cnc12 [7DN] | 50 to 150 nM |
